From patent US20130310352A1, “DEXAMETHASONE COMBINATION THERAPY” (priority 2010, published 2013)

Assays:
Assay type in all cases: cell-based, human
[1] = test system: MM cells ARP1, MM.1S and MM.1R; assay: Low-dose single agents, apoptosis; details: 40 μg/ml dexamethasone alone, 1 day
Method: Compound A-induced cell apoptosis was detected by Annexin V binding assay as previously described (Zheng Y, Cai Z, Wang S, et al. Macrophages are an abundant component of myeloma microenvironment and protect myeloma cells from chemotherapy drug-induced apoptosis. Blood. 2009; 114 (17):3625-3628). Briefly, MM cells were cultured in 24-well plates and treated with 0 to 1 mM final concentrations of compound A for 24 or 72 hours. The cells were washed twice with cold PBS and resuspended in Annexin V binding buffer (Invitrogen). MM cells were stained with FITC-conjugated Annexin V and propidium iodide (PI) for 15 min at room temperature. Apoptotic cells were determined as Annexin V positive cells.
Next, the experiment was extended to other MM cell lines, and they were treated with low compound A (1 μM) and dexamethasone (40 μg/ml).
ARP1 cells were treated with 10 μM compound A (BK), 15 nM melphalan (Me), 40 μg/ml dexamethasone (De), 100 μM lenalidomide (Le), 10 μM Bortizomib (BT), or their combinations for 1 day. The cell apoptosis were measured as described. […] Cell apoptosis was measured. […] Same MM cell lines were treated with compound A for 1 day and cell growth were measured by MTS. […] Cell apoptosis were measured by annexin V staining. […] Cells apoptosis rates were measured by annxin V staining. […]

MM.1S cells [2] = assay: Apoptosis with or without IL-6 addition (positive control); details: 40 μg/ml dexamethasone, rhIL-6
Method: IL-6 is an important survival cytokine for MM (Klein B, Zhang X G, Jourdan M, et al. Interleukin-6 is the central tumor growth factor in vitro and in vivo in multiple myeloma. Eur Cytokine Netw. 1990; 1 (4):193-201; Gado K, Domjan G, Hegyesi H, Falus A. Role of INTERLEUKIN-6 in the pathogenesis of multiple myeloma. Cell Biol Int. 2000; 24 (4):195-209). […] For this purpose, different MM cell lines ARP1, MM.1S and MM.1R were cultured with or without recombinant hIL-6 (final concentration […]) and treated with or without 10 μM compound A for 2 days. As a positive control, MM.1S cells were treated with 40 μg/ml of dexamethasone with or without hIL-6 addition for the same period of time.
(§1) MM cell lines ARP1, MM.1S and MM.1R were cultured with 10 μM compound A for 3 days. rhIL-6 were added to final concentration of 5 ng/ml. As a positive control, MM.1S cells were treated with 40 μg/ml dexamethasone in the presence of 5 ng/ml of rhIL6 for the same time. Cells apoptosis rate was measured by annexin V staining. (B). Same MM cells were co-cultured with or without MM BMSC, and treated with 10 μM of compound A for 1 day. As a positive control, MM.1S cells were cocultured with or without BMSC and treated with 40 μg/ml dexamethasone for 1 day. CD138+ MM cells apoptosis rate was measured by Annexin V staining.

MM.1S cells [3] = assay: Apoptosis in coculture with BMSCs (positive control); details: 40 μg/ml dexamethasone, 24 hours, BMSC coculture
Method: For this purpose, BMSCs isolated from MM patient were cocultured with MM cell lines ARP1, MM.1S and MM.1R. The cells were treated with or without 10 μM of compound A for 24 hours. As a positive control, MM.1S cells were cocultured with or without BMSC and treated with or without 40 μg/ml of dexamethasone for 24 hours. After treatment, the MM cells were identified as CD138+ cells by APC-CD138 staining.
as §1

With `C[C@@H]1C[C@H]2[C@@H]3CCC4=CC(=O)C=C[C@]4(C)[C@@]3(F)[C@@H](O)C[C@]2(C)[C@@]1(O)C(=O)CO` [dexamethasone, (8S,9R,10S,11S,13S,14S,16R,17R)-9-Fluoro-11,17-dihydroxy-17-(2-hydroxyacetyl)-10,13,16-trimethyl-6,7,8,9,10,11,12,13,14,15,16,17-dodecahydro-3H-cyclopenta[a]phenanthren-3-one] the “cytotoxic effect of low dose alone” value [1] was “only limited cytotoxic effect”, the “effect of IL6 addition under dexamethasone treatment” value (MM.1S cells [2]) was “promoted MM.1S cells survival” and the “effect of BMSCs on dexamethasone induced cell apoptosis” value (MM.1S cells [3]) was “protected MM.1S cells”.
